Patent publication US20250025465A1, “WT-IDH1 INHIBITION USING A COVALENT AND BRAIN-PENETRANT SMALL MOLECULAR INHIBITOR FOR FERROPTOSIS INDUCTION IN HIGH-GRADE GLIOMA” (Northwestern University, priority 2021, published 2025)
“Also recorded” adds a separate entry of the source. Like-named read-outs stand apart in the source and are kept apart here.

Columns and labels:
[1] = see Chung et al.; cited from earlier work
[2] = H&E staining of normal brain from PDX mice treated with RT+13i; assay type: in vivo; details: H&E of tumor-adjacent normal cortex, hippocampus and cerebellum
Source text: (§1) (A). Treatment schedule. (B). […]. (C). Kaplan-Meyer survival benefit analysis. (D) H&E stainings of normal brain from PDX mice treated with RT+13i. *p<0.05.
(§2) . Toxicity to normal brain structures was not observed, as indicated by H&E stainings of tumor-adjacent normal cortex, hippocampus and cerebellum (FIG. 12E).

recombinant wt-IDH2 = target: T1, recombinant wt-IDH2 (Homo sapiens, UniProt P48735); experiment: NADPH production by recombinant wt-IDH2; assay type: biochemical; details: FIG. 6
T1 sequence (P48735 40-452): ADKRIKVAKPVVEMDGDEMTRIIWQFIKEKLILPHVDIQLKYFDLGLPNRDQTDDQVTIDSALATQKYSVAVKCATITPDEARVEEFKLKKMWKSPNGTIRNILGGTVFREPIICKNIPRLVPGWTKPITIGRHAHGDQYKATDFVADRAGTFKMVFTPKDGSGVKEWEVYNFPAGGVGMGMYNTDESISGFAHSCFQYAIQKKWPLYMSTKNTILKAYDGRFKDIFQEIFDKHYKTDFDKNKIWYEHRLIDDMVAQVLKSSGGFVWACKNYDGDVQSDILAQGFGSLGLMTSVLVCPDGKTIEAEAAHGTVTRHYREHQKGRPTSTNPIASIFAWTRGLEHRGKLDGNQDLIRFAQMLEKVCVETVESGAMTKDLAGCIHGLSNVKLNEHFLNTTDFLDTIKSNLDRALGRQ
Source text: FIG. 6. wt-IDH1i-13 is a selective covalent wt-IDH1 inhibitor.
(§3) The compound 13i was developed using a high-throughput screen of a proprietary library, which encompasses 750,000 compounds. During the screen, the investigators identified a hit series, centered around compound wt-IDH1i-1, which contained a large cluster of α,β-unsaturated enones^9. As indicated by the wt-IDH1: wt-IDH1i-1 crystal structure, wt-IDH1-1i bound to a fully closed wt-IDH1 enzyme and competed with NADPH for access to the wt-IDH1 active site via formation of a covalent adduct and the […] trapping of H315 located within the NAPDH binding site^9. […] Blastp searches identified wt-IDH2 as the only NADPH-dependent enzyme that contained an NADPH binding site with significant similarity to the NADPH binding pocket found in wt-IDH1. […] Of note, while H315 and D375 are conserved between wt-IDH1 and wt-IDH2, other important amino acids, including those adjacent to D375 that form a lipophilic groove (K374/L383/A378) required for 13i binding are different, and are likely to mediate compound selectivity.

wt-IDH1 [3] = target: T2, wt-IDH1 (Homo sapiens, UniProt O75874); experiment: cell-free wt-IDH1 enzyme inhibition; assay type: biochemical; details: read-out: EC50, blocks wt-IDH1
Source text: (§4) A therapeutic strategy for the pharmacological inhibition of wt-IDH1 has been devised.
as §3
Target sequence in this assay (O75874 whole entry): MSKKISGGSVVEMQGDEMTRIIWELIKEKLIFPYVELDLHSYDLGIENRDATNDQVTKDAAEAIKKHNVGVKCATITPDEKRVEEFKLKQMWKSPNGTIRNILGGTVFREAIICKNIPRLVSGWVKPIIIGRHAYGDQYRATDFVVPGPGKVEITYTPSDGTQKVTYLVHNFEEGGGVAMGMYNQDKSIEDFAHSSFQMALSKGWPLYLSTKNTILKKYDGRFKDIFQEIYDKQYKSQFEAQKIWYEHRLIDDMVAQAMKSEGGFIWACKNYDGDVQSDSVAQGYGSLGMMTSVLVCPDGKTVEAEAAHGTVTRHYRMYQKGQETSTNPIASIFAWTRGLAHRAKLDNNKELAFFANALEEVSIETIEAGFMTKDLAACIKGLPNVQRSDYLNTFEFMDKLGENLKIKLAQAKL

HGG PDX = experiment: adult HGG PDX model treated with 13i and RT; assay type: in vivo, mice; details: for enhancement of RT anti-tumor effect: i.p. administration, RT 2 Gy x 5
Source text: as §1, §2

wt-IDH1 [4] = target: T2, wt-IDH1; experiment: cellular wt-IDH1 inhibition; assay type: cell-based; set-up: endogenous in cells
Source text: as §4
Target sequence in this assay (O75874 2-414 limits assumed): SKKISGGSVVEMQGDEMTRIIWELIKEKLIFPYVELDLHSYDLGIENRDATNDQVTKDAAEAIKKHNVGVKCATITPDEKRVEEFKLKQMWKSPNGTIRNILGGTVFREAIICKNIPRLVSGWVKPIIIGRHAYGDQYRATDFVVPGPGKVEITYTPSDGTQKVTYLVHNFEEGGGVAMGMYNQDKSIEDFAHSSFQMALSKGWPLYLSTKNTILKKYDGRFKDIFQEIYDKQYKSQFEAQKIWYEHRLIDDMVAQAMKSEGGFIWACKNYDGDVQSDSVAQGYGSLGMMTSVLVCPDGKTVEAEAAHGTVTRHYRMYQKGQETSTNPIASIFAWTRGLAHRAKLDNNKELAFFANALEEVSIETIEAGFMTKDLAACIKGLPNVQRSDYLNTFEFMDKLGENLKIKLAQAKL

HGG glioma cells = experiment: SYTOX green staining of glioma cells (plasma membrane rupture, ferroptosis); assay type: cell-based; details: for ferroptosis / plasma membrane rupture (SYTOX green positivity): compared to vehicle control, FIG. 11; for rescue of 13i treatment effect by co-treatment: co-treatment with 13i, SYTOX green, FIG. 11A-C
[5] = in vivo effects of mt-IDH1 inhibitors in HGG
Source text: (§5) As these mt-IDH1-specific inhibitors recognize an allosteric site within the enzyme dimerization domain, many of these compounds show ‘off-target’ effect against wt-IDH1, as elucidated in cell-free enzyme repression assays.

[6] = tested on: patient-derived HGG cells; experiment: growth and cell death in patient-derived HGG cells; assay type: cell-based
Source text: as §5

U87MG cells = experiment: clonogenic growth assay, RT enhancement upon wt-IDH1 knockdown; assay type: cell-based; details: incubation with antioxidant precursor, FIG. 5A
Method: FIG. 5. wt-IDH1 inactivation enhances RT anti-tumor effect (A). RT enhancement ratio, as assessed via clonogenic growth assay in U87MG cells, upon genetic wt-IDH1inactivation, in the presence or absence of the ROS scavenger N-acetyl […] (NAC). (B). wt-IDH1 in doxy-treated xenogafts. (C). Tumor volume in mice subcutaneously implanted with U87MG cells carrying a doxy-inducible shIDH1 were treated with doxy and irradiated with a total of 14 Gy administered in 7 fractions of 2 Gy, and tumor volumes were measured. *p<0.05. (D.) Kaplan-Meyer estimates for tumor tripling, *p<0.005 vs. control; **p<0.001 vs. control, RT and doxy. […] Knockdown of wt-IDH1 decreased HGG cell line NADPH concentrations by 50-60%, and similarly depleted numerous NADPH-dependent metabolites, including the antioxidant glutathione (GSH). […] To determine whether combining RT and wt-IDH1 knockdown had beneficial anti-HGG effects in vivo, we established flank xenografts carrying a doxycycline (doxy)-inducible shRNA directed against wt-IDH1. A flank model was used due to the variable CNS penetrance of doxy. Immunoblotting confirmed that administration of doxy had the intended effects on wt-IDH1 expression in both inducible shIDH1 and shCo xenografts (FIG. 5B).

wt-IDH1 [7] = target: T2, wt-IDH1; details: covalent engagement with the NADPH pocket; from the screen of Jakob et al.; read-out: cell-free EC50; cited from earlier work
Target sequence in this assay (O75874 whole entry): as the sequence (O75874 whole entry) above

## C[C@@H]1C(=O)C(C#N)=C[C@]2(c3ccccc3)c3nc(Nc4ccccc4)ncc3CC[C@@H]12 [13i, (6aS,7S,10aR)-2-anilino-7-methyl-8-oxo-10a-phenyl-5,6,6a,7-tetrahydrobenzo[h] quinazoline-9-carbonitrile]
[1]
  brain penetrance: brain-penetrant
[2]
  toxicity to normal brain structures: not observed
Recombinant wt-IDH2
  fold higher EC50 against recombinant wt-IDH2 compared to wt-IDH1: 100 fold
wt-IDH1 [3]
  EC50: 14 nM
HGG PDX; i.p. 10 mg/kg M-F, in combination with RT 2 Gy x 5, 10 mg/kg
  tumor volume / progression (bioluminescence): highly reduced tumor volume; also recorded: reduces the progression
HGG PDX; i.p. 10 mg/kg M-F, in combination with RT 2 Gy x 5, versus vehicle, 10 mg/kg
  survival: increased survival; also recorded: extends the survival
HGG PDX
  enhancement of RT anti-tumor effect: enhancement of RT anti-tumor effect
HGG PDX; listed as wt-DIH1i-13
  enhancement of RT anti-tumor effect: enhances RT anti-tumor effect in vivo
wt-IDH1 [4]
  IC50: 800 to 1700 nM
HGG glioma cells
  ferroptosis / plasma membrane rupture (SYTOX green positivity): induced plasma membrane rupture; also recorded: promotes ferroptosis
HGG glioma cells; listed as wt-DIH1i-13
  ferroptosis / plasma membrane rupture (SYTOX green positivity): promotes ferroptosis

## COc1c(C)cc(NC(=O)c2nn(Cc3ccc(F)cc3)c3c2CN(C(=O)c2ccc[nH]2)C[C@]3(C)C(N)=O)cc1C [GSK864]
[5]
  in vivo effects: moderate
[6]
  drug concentrations sufficient to impact growth and cell death: in the high micromolar range

## CC(=O)N[C@@H](CS)C(=O)O [NAC, N-acetyl cysteine, reference compound]
HGG glioma cells
  rescue of 13i treatment effect by co-treatment: rescued 13i treatment effect
U87MG cells
  reversal of radiosensitization conferred by wt-IDH1 knockdown: nearly completely reversed

## CCOC(=O)c1ccc(NC2CCCCC2)c(N)c1 [ferrostatin, reference compound]
HGG glioma cells
  rescue of 13i treatment effect by co-treatment: rescued 13i treatment effect

## C[C@@H]1C(=O)C(C#N)=C[C@]2(C)c3nc(Nc4ccccc4)ncc3CC[C@@H]12 [wt-IDH1i-1, (6aS,7S,10aR)-2-anilino-7,10a-dimethyl-8-oxo-5,6,6a,7-tetrahydrobenzo[h] quinazoline-9-carbonitrile]
wt-IDH1 [7]
  EC50: 49 nM
